The record followed here is patent publication US9873690B2, “3-indol substituted derivatives, pharmaceutical compositions and methods for use” (Pfizer Inc., priority 2015, dated 2018).

The assay deals with T1, hTDO2 (Homo sapiens, UniProt P48775).
T1 construct: endogenous in cells; host or cells: A172 human brain glioblastoma cells (ATCC CRL-1620)
T1 sequence (P48775 whole entry): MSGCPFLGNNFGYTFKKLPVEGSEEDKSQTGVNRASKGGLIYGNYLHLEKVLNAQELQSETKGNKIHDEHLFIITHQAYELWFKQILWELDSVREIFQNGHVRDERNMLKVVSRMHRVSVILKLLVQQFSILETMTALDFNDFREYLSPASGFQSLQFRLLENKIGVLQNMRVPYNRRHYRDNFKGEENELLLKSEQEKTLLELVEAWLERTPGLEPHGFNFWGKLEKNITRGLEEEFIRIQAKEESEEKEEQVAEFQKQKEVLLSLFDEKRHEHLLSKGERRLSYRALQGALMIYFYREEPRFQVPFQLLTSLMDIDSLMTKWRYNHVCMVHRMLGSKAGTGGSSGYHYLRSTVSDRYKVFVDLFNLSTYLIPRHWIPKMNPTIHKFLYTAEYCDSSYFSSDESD
Briefly: Cellular assay for TDO2 activity determination in A172 cells. It counts as cell-based. Particulars: human glioblastoma A172 cells naturally expressing hTDO2; overnight incubation; kynurenine by absorbance at 480 nm. The protocol: The compounds of formula I inhibit the activity of human TDO2 in cells that constitutively express TDO2, such as A172 cells. A172 is a cell line derived from human brain glioblastoma cells. The cells are available from the American Type Culture Collection (ATCC®) as CRL-1620™.
The assay (adapted from Pilotte L et al., Proc Natl Acad Sci USA, 2012, 109(7), 2497-502) was performed in 96-well flat bottom plates seeded with human glioblastoma A172 cells, naturally expressing hTDO2 (prepared as described in Tilman et al., Mol Cancer, 2007, 17(6), 80), at a concentration of 1.25×10^4 cells/well in a final volume of 200 μL. To determine TDO, the cells were incubated overnight at 37° C. at 5% CO2 in IMDM (Invitrogen) supplemented with 2% FBS and 2% penicillin/streptomycin in the presence of the compounds of the present invention, at different concentrations.
The plates were then centrifuged 5 min at 1000 rpm, and 100 μL of the supernatant were collected in a conical plate, 30 μL of TCA 30% were added and a further centrifuged at 3000×g for 10 minutes. 100 μL of the supernatant were collected in a flat bottomed plate and 100 μL of 2% (w/v) 4-(dimethylamino)-benzaldehyde in acetic acid and incubated for 5 min at room temperature. Kynurenine concentrations were determined by measuring the absorbance at 480 nm. A standard curve was made with pure kynurenine. The TDO activity was measured as described above using ten serial concentrations of the compounds of the present invention. Data were fitted using the Prism™ software (GraphPad Software, Inc.) using standard parameters.
The biological activity of representative compounds in human brain glioblastoma cells as determined in the above-referenced assay is summarized in the following table: […]
As usually defined, the IC50 is the concentration that gives 50% inhibition. A high value points to weaker potency in that assay. `CC1c2cc(-c3c[nH]c4cc(F)ccc34)ccc2S(=O)(=O)N1CC(=O)N(C)C` (single isomer, unassigned; (-)) [Example 113, (−)-2-(5-(6-fluoro-1H-indol-3-yl)-3-methyl-1,1-dioxidobenzo[d]isothiazol-2(3H)-yl)-N,N-dimethylacetamide]: the IC50 was 59 nM.
As for `CNCC1NS(=O)(=O)c2ccc(-c3c[nH]c4cc(F)ccc34)cc21` (single isomer, unassigned) [Example 137, 5-(6-fluoro-1H-indol-3-yl)-3-((methylamino)methyl)-2,3-dihydrobenzo[d]isothiazole 1,1-dioxide], the figure is 66 nM; as for `CC(=O)NCC1NS(=O)(=O)c2ccc(-c3c[nH]c4cc(F)ccc34)cc21` (single isomer, unassigned; (+)) [Example 24, (+)-N-((5-(6-fluoro-1H-indol-3-yl)-1,1-dioxido-2,3-dihydrobenzo[d]isothiazol-3-yl)methyl)acetamide], 255 nM.
As for `CC1c2cc(-c3c[nH]c4cc(F)ccc34)ccc2S(=O)(=O)N1C1CNC1` (single isomer, unassigned; (-)) [Example 91, (−)-2-(azetidin-3-yl)-5-(6-fluoro-1H-indol-3-yl)-3-methyl-2,3-dihydrobenzo[d]isothiazole 1,1-dioxide], the figure is 260 nM.
Compound `CN1CCC(N2Cc3cc(-c4c[nH]c5cc(F)ccc45)ccc3S2(=O)=O)CC1` [Example 37, 5-(6-fluoro-1H-indol-3-yl)-2-(1-methylpiperidin-4-yl)-2,3-dihydrobenzo[d]isothiazole 1,1-dioxide] displayed an IC50 of 196 nM.
Compound `NCC1NS(=O)(=O)c2ccc(-c3c[nH]c4cc(F)ccc34)cc21` (single isomer, unassigned; (-)) [Example 20, (−)-3-(aminomethyl)-5-(6-fluoro-1H-indol-3-yl)-2,3-dihydrobenzo[d]isothiazole 1,1-dioxide] returned a concentration for half-maximal inhibition (IC50) of 430 nM.
The same measure for `O=S1(=O)c2ccc(-c3c[nH]c4cc(F)ccc34)cc2CN1[C@H]1CCOC1` [Example 39, (S)-5-(6-fluoro-1H-indol-3-yl)-2-(tetrahydrofuran-3-yl)-2,3-dihydrobenzo[d]isothiazole 1,1-dioxide]: 342 nM.
`CNC(=O)C(N)CN1C(C)c2cc(-c3c[nH]c4cc(F)ccc34)ccc2S1(=O)=O` (single isomer, unassigned; (+)) [Example 104, (+) 2-amino-3-(5-(6-fluoro-1H-indol-3-yl)-3-methyl-1,1-dioxidobenzo[d]isothiazol-2(3H)-yl)-N-methylpropanamide] returned an IC50 of 120 nM.
The compound `NC(=O)C1NS(=O)(=O)c2ccc(-c3c[nH]c4cc(F)ccc34)cc21` (single isomer, unassigned; (+)) [Example 16, (+)-5-(6-fluoro-1H-indol-3-yl)-2,3-dihydrobenzo[d]-isothiazole-3-carboxamide 1,1-dioxide] yielded an IC50 of 1380 nM.
As for `CC1c2cc(-c3c[nH]c4cc(F)ccc34)ccc2S(=O)(=O)N1C1CCNC(=O)C1` (single isomer, unassigned; (-)) [Example 122, (−)-4-(-5-(6-fluoro-1H-indol-3-yl)-3-methyl-1,1-dioxidobenzo[d]isothiazol-2(3H)-yl)piperidin-2-one], the figure is 54 nM; as for `CC1c2cc(-c3c[nH]c4cc(F)ccc34)ccc2S(=O)(=O)N1C1CNC(=O)C1` (single isomer, unassigned; (+)) [Example 123, (+)4-(5-(6-fluoro-1H-indol-3-yl)-3-methyl-1,1-dioxidobenzo[d]isothiazol-2(3H)-yl)pyrrolidin-2-one], 501 nM; as for `CC1c2cc(-c3c[nH]c4cc(F)ccc34)ccc2S(=O)(=O)N1CC(N)=O` (single isomer, unassigned; (+)) [Example 115], 88 nM.
As for `CC1c2cc(-c3c[nH]c4cc(F)ccc34)ccc2S(=O)(=O)N1CCC(=O)N1CCNCC1` (single isomer, unassigned; (-)) [Example 50, (−)3-(5-(6-fluoro-1H-indol-3-yl)-3-methyl-1,1-dioxidobenzo[d]isothiazol-2(3H)-yl)-1-(piperazin-1-yl)propan-1-one], the figure is 336 nM; as for `CNC(=O)C(C)N1C(C)c2cc(-c3c[nH]c4cc(F)ccc34)ccc2S1(=O)=O` (single isomer, unassigned; (-)) [Example 145, (−)-2-(5-(6-fluoro-1H-indol-3-yl)-3-methyl-1,1-dioxidobenzo[d]isothiazol-2(3H)-yl)-N-methylpropanamide], 92 nM; as for `CC(=O)N1CCC(N2C(C)c3cc(-c4c[nH]c5cc(F)ccc45)ccc3S2(=O)=O)C1` (single isomer, unassigned; (+)) [Example 73, (+)-1-(3-(5-(6-fluoro-1H-indol-3-yl)-3-methyl-1,1-dioxidobenzo[d]isothiazol-2(3H)-yl)pyrrolidin-1-yl)ethanone], 246 nM.
With `CC(=O)NCC1NS(=O)(=O)c2ccc(-c3c[nH]c4cc(F)ccc34)cc21` (single isomer, unassigned; (-)) [Example 23, (−)-N-((5-(6-fluoro-1H-indol-3-yl)-1,1-dioxido-2,3-dihydrobenzo[d]isothiazol-3-yl)methyl)acetamide], the IC50 was determined as 1020 nM. This IC50 is about 4.1-fold higher than that of the compound before.
The same measure for `CC1c2cc(-c3c[nH]c4cc(F)ccc34)ccc2S(=O)(=O)N1C1CCNC(=O)C1` (single isomer, unassigned; (+)) [Example 120]: 91 nM; for `CNC(=O)C(CN1C(C)c2cc(-c3c[nH]c4cc(F)ccc34)ccc2S1(=O)=O)OC` (single isomer, unassigned; (-)) [Example 108, (−)-3-(5-(6-fluoro-1H-indol-3-yl)-3-methyl-1,1-dioxidobenzo[d]isothiazol-2(3H)-yl)-2-methoxy-N-methylpropanamide]: 93 nM.
As for `CC1c2cc(-c3c[nH]c4cc(F)ccc34)ccc2S(=O)(=O)N1CCC(N)=O` (single isomer, unassigned; (-)) [Example 48, (−)-3-(5-(6-fluoro-1H-indol-3-yl)-3-methyl-1,1-dioxidobenzo[d]isothiazol-2(3H)-yl)propanamide], the figure is 77 nM; as for `CNS(=O)(=O)CCN1C(C)c2cc(-c3c[nH]c4cc(F)ccc34)ccc2S1(=O)=O` (single isomer, unassigned; (-)) [Example 59, (−)-2-(5-(6-fluoro-1H-indol-3-yl)-3-methyl-1,1-dioxidobenzo[d]isothiazol-2(3H)-yl)-N-methylethane-1-sulfonamide], 425 nM.
As for `CCC1NS(=O)(=O)c2ccc(-c3c[nH]c4cc(F)ccc34)cc21` (single isomer, unassigned; (-)) [Example 4, (−)-3-ethyl-5-(6-fluoro-1H-indol-3-yl)-2,3-dihydrobenzo[d]isothiazole 1,1-dioxide], the figure is 272 nM; as for `CC1c2cc(-c3c[nH]c4cc(F)ccc34)ccc2S(=O)(=O)N1C[C@@]1(C)CCC(=O)N1` (single isomer, unassigned; (-)) [Example 84], 389 nM; as for `CCC1NS(=O)(=O)c2ccc(-c3c[nH]c4cc(F)ccc34)cc21` (single isomer, unassigned; (+)) [Example 3, (+)-3-ethyl-5-(6-fluoro-1H-indol-3-yl)-2,3-dihydrobenzo[d]-isothiazole 1,1-dioxide], 64 nM.
The compound `O=S1(=O)c2ccc(-c3c[nH]c4cc(F)ccc34)cc2C(CO)N1CC(O)CO` (single isomer, unassigned; (+)) [Example 144, (+)-2-(2,3-dihydroxypropyl)-5-(6-fluoro-1H-indol-3-yl)-3-(hydroxymethyl)-2,3-dihydrobenzo[d]isothiazole 1,1-dioxide] showed an IC50 of 190 nM.
In turn, `O=S1(=O)NC(CO)c2cc(-c3c[nH]c4cc(F)ccc34)ccc21` (single isomer, unassigned; (+)) [Example 13, (+)-5-(6-fluoro-1H-indol-3-yl)-3-(hydroxymethyl)-2,3-dihydrobenzo[d]isothiazole 1,1-dioxide] yielded an IC50 of 43 nM.
In turn, `CC1c2cc(-c3c[nH]c4cc(F)ccc34)ccc2S(=O)(=O)N1C1CCNC(=O)C1` (single isomer, unassigned; (-)) [Example 119, (−)-4-(-5-(6-fluoro-1H-indol-3-yl)-3-methyl-1,1-dioxidobenzo[d]isothiazol-2(3H)-yl)piperidin-2-one] yielded a half-inhibitory concentration (IC50) of 390 nM.
`CC(=O)N(C)CC1NS(=O)(=O)c2ccc(-c3c[nH]c4cc(F)ccc34)cc21` (single isomer, unassigned; (+)) [Example 27, (+)-N-((5-(6-fluoro-1H-indol-3-yl)-1,1-dioxido-2,3-dihydrobenzo[d]isothiazol-3-yl)methyl)-N-methylacetamide] gave an IC50 of 226 nM.
On to `O=S1(=O)c2ccc(-c3c[nH]c4cc(F)ccc34)cc2C(CO)N1CC(O)CO` (single isomer, unassigned; (+)) [Example 141, (+)-2-(2,3-dihydroxypropyl)-5-(6-fluoro-1H-indol-3-yl)-3-(hydroxymethyl)-2,3-dihydrobenzo[d]isothiazole 1,1-dioxide], for which the half-inhibitory concentration (IC50) stood at 830 nM.
